What all share (test): NCI anticancer screen, dose series, 48 h
For experiment [1], the system named is DU-145 prostate.
In experiment [2] the test system is HCT-15 colon.
In experiment [3] the test system is K-562 leukemia.
The subject of experiment [4] is NCI-H460 lung.
For experiment [5], the system named is OVCAR-3 ovarian.
Experiment [6] concerns RXF 393 renal.
Experiment [7] relates to SF-295 CNS.
In experiment [8] the test system is SF-539 CNS.
For experiment [9], the system named is SNB-75 CNS.
For experiment [10], the system named is SW-620 colon.

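Method: 48-hour compound exposure of cells in 96-well plates, five concentrations, linear interpolation of endpoints. GI50 is the concentration that inhibits growth by half. Definition used: TGI = concentration required for complete inhibition of growth.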

With `C=C1C(=O)O[C@H]2[C@H]1CC/C(COC(=O)NCCc1c[nH]c3ccc(Cl)cc13)=C\CC[C@@]1(C)O[C@@H]21`, the GI50 in experiment [1] is 1610 nM; in [2] it was 1160 nM; in experiment [3] it was 1100 nM; in experiment [4], 2200 nM; in experiment [5], 1770 nM; in experiment [6], 1540 nM. For the same compound, the GI50 was 6530 nM in [7], 1750 nM in experiment [8], 1330 nM in [9] and 1820 nM in experiment [10]. The TGI came out at 3250 nM in experiment [1]; 2660 nM in experiment [2]; 5950 nM in experiment [3]; 4640 nM in [4]; 3830 nM in experiment [5]; 2940 nM in experiment [6]. Moreover, the TGI in experiment [7] was 20300 nM; in experiment [8] it was 3320 nM; in experiment [9] it was 2970 nM; in experiment [10], 4260 nM.

`Oc1[nH]c2ccccc2c1N=Nc1c(F)c(F)c(F)c(F)c1F`: the TGI in [1] was more than 100000 nM; in [2], more than 100000 nM; in experiment [3], 33500 nM; in experiment [4], more than 100000 nM; in experiment [5] it was more than 100000 nM; in experiment [6], more than 100000 nM. Moreover, the TGI in experiment [7] is more than 100000 nM; in experiment [8], more than 100000 nM; in experiment [9], more than 100000 nM; in experiment [10] it was more than 72800 nM.

On to `Cc1cnc(Nc2ccc(N3CCN(C)CC3)cc2)nc1Nc1ccc(Cl)c(NS(=O)(=O)C(C)(C)C)c1`, for which the GI50 is 303 nM in experiment [1]; 168 nM in experiment [2]; 245 nM in experiment [3]; 267 nM in experiment [4]; 324 nM in experiment [5]; 136 nM in experiment [6]. Moreover, the GI50 in experiment [7] is 524 nM; in experiment [8], 434 nM; in [9] it was less than 25.6 nM; in experiment [10], 232 nM. Also, the TGI was 11000 nM in [1]; 3180 nM in experiment [2]; 7740 nM in [3]; 10300 nM in experiment [4]; 2930 nM in [5]; 959 nM in [6]. The TGI came out at 2950 nM in experiment [7], 1840 nM in experiment [8], 828 nM in [9] and 5450 nM in [10].

With `CN(C)c1ccc(C(c2ccc(Cl)cc2)c2ccc(N(C)C)cc2)cc1`, the TGI in experiment [1], in experiment [2], in experiment [3], in experiment [4], in [5] and in experiment [6] was more than 100000 nM in each case. Also, the TGI in experiment [7], in experiment [8], in experiment [9] and in [10] was more than 100000 nM throughout.

With `COc1cccc(C2C3=C(COC3=O)N(CCO)c3cc4c(cc32)OCO4)c1` (stereo unspecified), the GI50 in experiment [1] is 388 nM; in [2], 1020 nM; in experiment [3], 155 nM; in experiment [4] it was 189 nM; in experiment [5] it was 121 nM; in [6] it was 99.4 nM. For the same compound, the GI50 in experiment [7] was 157 nM; in [8], 360 nM; in experiment [9] it was 151 nM; in experiment [10], 229 nM. Further, the TGI is more than 50000 nM in experiment [2]; more than 18700 nM in experiment [3]; 286 nM in experiment [5]; 352 nM in experiment [6]; 1070 nM in experiment [9]; more than 50000 nM in experiment [10].

As for `CCOC(=O)c1ccc2c(c1)[n+](=O)c(C(C)=O)c(C(F)(F)F)n2[O-]`, the GI50 in experiment [1] is 1570 nM; in [2], 1400 nM; in [3], 1160 nM; in experiment [4], 1460 nM; in experiment [5], 1490 nM; in experiment [6] it was 2150 nM. For the same compound, the GI50 in [7] is 1370 nM; in experiment [8], 1710 nM; in [9], 1550 nM; in [10], 1520 nM. For the same compound, the TGI is 2960 nM in [1]; 3220 nM in experiment [2]; 2520 nM in experiment [3]; 2860 nM in experiment [4]; 2930 nM in experiment [5]; 5770 nM in experiment [6]. Moreover, the TGI worked out at 3010 nM in experiment [7], 3310 nM in experiment [8], 3000 nM in experiment [9] and 3260 nM in [10].
